From patent publication US6218367A, “Paclitaxel-carbohydrate conjugates: design, synthesis and biological evaluations” (Organomed Corporation, priority 1999, dated 2001)
Like-named read-outs stand apart in the source and are kept apart here.

Experiments:
OVCAR-3 = experiment: NCI in vitro human tumor cell line screen, ovarian cancer; format: cell-based
OVCAR-5 = experiment: as above; format: cell-based
OVCAR-8 = experiment: as above; format: cell-based; conditions: OVCAR-8, ovarian cancer, 48 hours
SK-OV-3 = experiment: as above; format: cell-based; conditions: SK-OV-3, ovarian cancer, 48 hours
MCF-7 = experiment: NCI in vitro human tumor cell line screen, breast cancer; format: cell-based
HS578T = experiment: as above; format: cell-based; conditions: Hs-578T
Description: (§1) Compounds were tested as described (Monks, A. et al., (1991). J. Nat. Cancer Int., 83, 757-766; Boyd, M. R., and Paull, K. D., (1995) "Some practical considerations and applications of the National Cancer Institute In Vitro Anticancer Drug Discovery Program", Drug Development Res., 34, 91-109 in the NCI in vitro human tumor cell line screen). The compounds were examined in 60 different cell lines. The following definitions are based on the National Cancer Institute in vitro screen protocol (Boyd, M. R., and Paull, K. D., (1995) "Some practical considerations and applications of the National Cancer Institute In Vitro Anticancer Drug Discovery Screen", ibid., 34, 91-109).
(§2) The "50% growth inhibition" parameter (GI50) is the concentration of test drug where: [formula]
(§3) T is the optical density of the test well after 48 hours drug exposure, T0 is the optical density at time zero, and C is the control optical density, PG is the "percent growth". It is a T/C like parameter that can have values from +100 to -100.
(§4) Total Growth Inhibition (TGI) signifies the cytostatic level effect: [formula]
(§5) The GI50, TGI and LC50 values were calculated by interpolation using the tested concentrations that give PG values above and below the response reference values (e.g. 50 for GI50). Dose-response curves are compared for compound 1 and paclitaxel for breast cancer, ovarian cancer, CNS cancer and non-small lung cancer in FIGS. 1-4 respectively.

MDA-MB-435 = experiment: as above; format: cell-based; conditions: 48 h, MDA-MB-435, breast cancer, read-out: TGI (total growth inhibition)
Description: as §1, §2, §3, §4, §5

MDA-N = experiment: as above; format: cell-based
Description: as §1, §2, §3, §4, §5

T-47D = experiment: as above; format: cell-based
A549/ATCC = experiment: NCI in vitro human tumor cell line screen, non small lung cancer; format: cell-based; conditions: 48 hours
EKVX = experiment: as above; format: cell-based; conditions: 48 hours
HOP-62 = experiment: as above; format: cell-based; conditions: HOP-62, non small lung cancer, 48 hours
NCI-H226 = experiment: as above; format: cell-based; conditions: 48 hours
NCI-H23 = experiment: as above; format: cell-based
NCI-H322M = experiment: as above; format: cell-based; conditions: 48 hours
NCI-H522 = experiment: as above; format: cell-based; conditions: 48 hours
SF-268 = experiment: NCI in vitro human tumor cell line screen, CNS cancer; format: cell-based; conditions: for GI50: Homo sapiens
SF-295 = experiment: as above; format: cell-based
SF-539 = experiment: as above; format: cell-based; conditions: SF-539, CNS cancer, 48 hours
SNB-19 = experiment: as above; format: cell-based; conditions: SNB-19, CNS cancer, 48 hours
SNB-75 = experiment: as above; format: cell-based; conditions: for GI50: Homo sapiens
Description: as §1, §2, §3, §4, §5

U251 = experiment: as above; format: cell-based; conditions: U-251, 48 hours
COLO205 = experiment: NCI in vitro human tumor cell line screen, colon cancer; format: cell-based
HCC-2998 = experiment: as above; format: cell-based; conditions: HCC-2998, colon cancer, 48 hours
HCT-116 = experiment: as above; format: cell-based; conditions: HCT-116, colon cancer, 48 hours
HCT-15 = experiment: as above; format: cell-based
HT-29 = experiment: as above; format: cell-based
Description: as §1, §2, §3, §4, §5

SW-620 = experiment: as above; format: cell-based; conditions: SW-620, colon cancer, 48 hours
CCRF-CEM = experiment: NCI in vitro human tumor cell line screen, leukemia; format: cell-based
HL-60TB = experiment: as above; format: cell-based
MOLT-2 = experiment: as above; format: cell-based; conditions: MOLT-2, leukemia, 48 hours
RPMI-8226 = experiment: as above; format: cell-based; conditions: RPMI-8226, leukemia, 48 hours
786-0 = experiment: NCI in vitro human tumor cell line screen, renal cancer; format: cell-based
RXF-393 = experiment: as above; format: cell-based
SN12C = experiment: as above; format: cell-based
PC-3 = experiment: NCI in vitro human tumor cell line screen, prostate cancer; format: cell-based
DU-145 = experiment: as above; format: cell-based
IGROVI = experiment: NCI in vitro human tumor cell line screen, ovarian cancer; format: cell-based; conditions: vs paclitaxel
ADR-RES = experiment: NCI in vitro human tumor cell line screen, breast cancer; format: cell-based; conditions: vs paclitaxel
UACC-62 = experiment: NCI in vitro human tumor cell line screen, melanoma; format: cell-based; conditions: UACC-62, melanoma, vs paclitaxel
[1] = tested on: ovarian cancer cell lines; experiment: NCI screen, ovarian cancer cell lines as a group; format: cell-based, human; conditions: for GI50: Homo sapiens, read-out: GI50 values, range
breast cancer cell lines = experiment: NCI screen, breast cancer cell lines as a group; format: cell-based, human; conditions: for GI50: Homo sapiens, 48 h, read-out: GI50 values, range
CNS cancer = experiment: NCI screen, CNS cancer dose response curves; format: cell-based, human; conditions: FIG. 3, vs paclitaxel
[2] = tested on: non-small cell lung cancer; experiment: NCI screen, non-small cell lung cancer dose response curves; format: cell-based, human; conditions: FIG. 4, vs paclitaxel
[3] = tested on: various cancer cell lines; experiment: NCI in vitro human tumor cell line screen, various cancer cell lines; format: cell-based; conditions: for IC (TGI): Homo sapiens, 48 h, read-out: TGI values (concentrations), order of magnitude
Description: as §1, §2, §3, §4
The LC50 is the lethal dose concentration, "net cell killing" or cytotoxicity parameter: [formula]
as §5

[4] = Water solubility as equilibrium concentration by HPLC
Description: The water solubility of compound 1 was determined as an equilibrium concentration at room temperature using HPLC measurements.

[5] = 48 h, read-out: TGI (total growth inhibition)

CC(=O)OC1C(=O)C2(C)C(O)CC3OCC3(OC(C)=O)C2C(OC(=O)c2ccccc2)C2(O)CC(OC(=O)C(OC(=O)CCC(=O)NCCCC(=O)OC3C(O)C(O)OC(CO)C3O)C(NC(=O)c3ccccc3)c3ccccc3)C(C)=C1C2(C)C (stereo not drawn) [chackol, (3-glucose) GABA paclitaxel succinate]
GI50 (OVCAR-3; Homo sapiens, OVCAR-3, ovarian cancer, 48 hours): 0.266 nM | times more active than paclitaxel (GI50) (OVCAR-3; OVCAR-3, vs paclitaxel): 18 times | GI50 (OVCAR-5; Homo sapiens, OVCAR-5, ovarian cancer, 48 hours): 0.156 nM | times more active than paclitaxel (GI50) (OVCAR-5; OVCAR-5, vs paclitaxel): 32 times | GI50 (OVCAR-8): 0.437 nM | GI50 (SK-OV-3): 0.502 nM | GI50 (MCF-7; Homo sapiens, MCF7, MCF-7, breast cancer, 48 hours): 0.256 nM | times more active than paclitaxel (GI50) (MCF-7; MCF-7, vs paclitaxel): 15 times | IC (TGI) (HS578T; [5]): 0.592 nM | GI50 (HS578T; 48 hours): 0.18 nM | IC (TGI) (MDA-MB-435): 0.215 nM | IC (TGI) (MDA-N; [5]): 0.294 nM | GI50 (MDA-N; 48 hours): 0.105 nM | GI50 (T-47D; Homo sapiens, T47D, breast cancer, 48 hours): 0.804 nM | times more active than paclitaxel (GI50) (T-47D; vs paclitaxel): 14 times | GI50 (A549/ATCC): 0.575 nM | GI50 (EKVX): 1.98 nM | GI50 (HOP-62): 1.13 nM | GI50 (NCI-H226): 0.419 nM | GI50 (NCI-H23; Homo sapiens, NCI-H23, non small lung cancer, 48 hours): 0.428 nM | times more active than paclitaxel (GI50) (NCI-H23; NCI-H23, vs paclitaxel): 107 times | GI50 (NCI-H322M): 0.593 nM | GI50 (NCI-H522): 0.184 nM | GI50 (SF-268; SF-268, CNS cancer, 48 hours, read-out: GI50): 0.275 nM | times more active than paclitaxel (GI50) (SF-268; SF-268, vs paclitaxel): 28 times | GI50 (SF-295; Homo sapiens, SF-295, CNS cancer, 48 hours): 1.44 nM | times more active than paclitaxel (GI50) (SF-295; SF-295, vs paclitaxel): 25 times | GI50 (SF-539): 0.22 nM | GI50 (SNB-19): 0.354 nM | GI50 (SNB-75; SNB-75, CNS cancer, 48 hours, read-out: GI50): 0.21 nM | times more active than paclitaxel (TGI) (SNB-75; SNB-75, CNS cancer, vs paclitaxel): 67 times | times more active than paclitaxel (GI50) (SNB-75; SNB-75, vs paclitaxel): 65 times | GI50 (U251): 0.363 nM | times more active than paclitaxel (GI50) (COLO205; COLO25 (so in the source), vs paclitaxel): 19 times | GI50 (COLO205; Homo sapiens, COLO 205, COLO205, colon cancer, 48 hours): 0.247 nM | GI50 (HCC-2998): 0.152 nM | GI50 (HCT-116): 0.228 nM | times more active than paclitaxel (GI50) (HCT-15; HCT-15, vs paclitaxel): 7 times | GI50 (HCT-15; Homo sapiens, HCT-15, colon cancer, 48 hours): 27.9 nM | times more active than paclitaxel (TGI) (HT-29; HT-29, colon cancer, vs paclitaxel): 303 times | times more active than paclitaxel (GI50) (HT-29; HT-29, vs paclitaxel): 40 times | GI50 (HT-29; Homo sapiens, HT-29, colon cancer, 48 hours): 0.127 nM | GI50 (SW-620): 0.348 nM | GI50 (CCRF-CEM; Homo sapiens, leukemia, 48 hours): 0.313 nM | times more active than paclitaxel (GI50) (CCRF-CEM; vs paclitaxel): 8 times | times more active than paclitaxel (GI50) (HL-60TB; HL-60 (TB), vs paclitaxel): 8 times | GI50 (HL-60TB; Homo sapiens, HL-60TB, leukemia, 48 hours): 0.249 nM | GI50 (MOLT-2): 0.487 nM | GI50 (RPMI-8226): 0.266 nM | times more active than paclitaxel (GI50) (786-0; 786-0, vs paclitaxel): 11 times | GI50 (786-0; Homo sapiens, 786-0, renal cancer, 48 hours): 1.33 nM | GI50 (RXF-393; Homo sapiens, RXF-393, renal cancer, 48 hours): 0.496 nM | times more active than paclitaxel (GI50) (RXF-393; RXF-393, vs paclitaxel): 23 times | GI50 (SN12C; Homo sapiens, renal cancer, 48 hours): 0.481 nM | times more active than paclitaxel (GI50) (SN12C; vs paclitaxel): 16 times | GI50 (PC-3; Homo sapiens, PC-3, prostate cancer, 48 hours): 0.276 nM | times more active than paclitaxel (GI50) (PC-3; PC-3, vs paclitaxel): 10 times | times more active than paclitaxel (GI50) (DU-145; DU-145, vs paclitaxel): 12 times | GI50 (DU-145; Homo sapiens, DU-145, prostate cancer, 48 hours): 0.401 nM | times more active than paclitaxel (GI50) (IGROVI): 45 times | times more active than paclitaxel (GI50) (ADR-RES): 23 times | times more active than paclitaxel (GI50) (UACC-62): 1490 times | GI50 ([1]; ovarian lines OVCAR-3, OVCAR-5 and IGROVI): ~0.1 nM | dose response curve compared with paclitaxel ([1]; ovarian cancer, FIG. 2, vs paclitaxel): extend one log unit lower than those for paclitaxel | GI50 (breast cancer cell lines; breast lines MCF-7, ADR-RES and T-47D): 0.1 to 10 nM | dose response curve compared with paclitaxel (breast cancer cell lines; breast cancer, FIG. 1, vs paclitaxel): extend one log unit lower than those for paclitaxel | dose response curve compared with paclitaxel (CNS cancer): extend one log unit lower than those for paclitaxel | dose response curve compared with paclitaxel [2]: extend one log unit lower than those for paclitaxel | IC (TGI) ([3]; on the order of, various cancer cell lines): ~0.1 nM | dose response curves compared with paclitaxel ([3]; breast, ovarian, CNS, non-small lung cancer, FIGS. 1-4): extend one log unit lower | growth inhibition (GI50) compared with paclitaxel ([3]; in general, vs paclitaxel): active at a much lower concentration as compared to paclitaxel | total growth inhibition compared with paclitaxel ([3]; various cancer cell lines, vs paclitaxel): more active than paclitaxel | solubility [4]: 240 µg/mL

CC(=O)O[C@H]1C(=O)[C@@]2(C)[C@H]([C@H](OC(=O)c3ccccc3)[C@]3(O)C[C@H](OC(=O)[C@H](O)[C@@H](NC(=O)c4ccccc4)c4ccccc4)C(C)=C1C3(C)C)[C@]1(OC(C)=O)CO[C@@H]1C[C@@H]2O [paclitaxel]
GI50 (SF-268; SF-268, 48 h): 7.61 nM | GI50 (SNB-75; SNB-75, 48 h): 13.6 nM | GI50 ([1]; 48 h): 1 to 10 nM | GI50 (breast cancer cell lines): 10 to 100 nM | IC (TGI) [3]: 10 to 100 nM
